#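 Following 48 hours of exposure in 96-well plates, responses at five concentrations were used to interpolate endpoints linearly. The concentration for 50% growth inhibition is given as GI50. Definition used: TGI = concentration required for complete inhibition of growth.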
# Key:
# Assay in all cases: growth of human tumour cells (NCI), 48 h
# CAKI-1 renal = test system: CAKI-1 renal
# UO-31 renal = test system: UO-31 renal
# SNB-78 CNS = test system: SNB-78 CNS
# SF-539 CNS = test system: SF-539 CNS
# MOLT-4 leukemia = test system: MOLT-4 leukemia
# SN12C renal = test system: SN12C renal
# A549 NSCLC = test system: A549 NSCLC
# OVCAR-8 ovarian = test system: OVCAR-8 ovarian
# IGROV1 ovarian = test system: IGROV1 ovarian
# UACC-62 melanoma = test system: UACC-62 melanoma
# KM12 colon = test system: KM12 colon
# HOP-62 NSCLC = test system: HOP-62 NSCLC
# K-562 leukemia = test system: K-562 leukemia
# NCI-H460 lung = test system: NCI-H460 lung
# RXF 393 renal = test system: RXF 393 renal
# COLO 205 colon = test system: COLO 205 colon
# NCI-H23 lung = test system: NCI-H23 lung
# SR leukemia = test system: SR leukemia
# NCI-H226 lung = test system: NCI-H226 lung
# HCT-116 colon = test system: HCT-116 colon
# SNB-19 CNS = test system: SNB-19 CNS
# LXFL 529 NSCLC = test system: LXFL 529 NSCLC
# HCC-2998 colon = test system: HCC-2998 colon
# SK-MEL-5 melanoma = test system: SK-MEL-5 melanoma
# SF-268 CNS = test system: SF-268 CNS
# OVCAR-3 ovarian = test system: OVCAR-3 ovarian
# M14 melanoma = test system: M14 melanoma
# CCRF-CEM leukemia = test system: CCRF-CEM leukemia
# SK-MEL-28 melanoma = test system: SK-MEL-28 melanoma
# A498 renal = test system: A498 renal
# HT29 colon = test system: HT29 colon
# OVCAR-5 ovarian = test system: OVCAR-5 ovarian
# U251 CNS = test system: U251 CNS
# NCI-H522 lung = test system: NCI-H522 lung
# EKVX NSCLC = test system: EKVX NSCLC
# LOX IMVI melanoma = test system: LOX IMVI melanoma
# SW-620 colon = test system: SW-620 colon
# HCT-15 colon = test system: HCT-15 colon
# DMS 114 small cell lung = test system: DMS 114 small cell lung
# OVCAR-4 ovarian = test system: OVCAR-4 ovarian
# ACHN renal = test system: ACHN renal
# SF-295 CNS = test system: SF-295 CNS
# SK-MEL-2 melanoma = test system: SK-MEL-2 melanoma
# HOP-92 NSCLC = test system: HOP-92 NSCLC
# SK-OV-3 ovarian = test system: SK-OV-3 ovarian
# RPMI-8226 leukemia = test system: RPMI-8226 leukemia
# MALME-3M melanoma = test system: MALME-3M melanoma
# UACC-257 melanoma = test system: UACC-257 melanoma
# 786-0 renal = test system: 786-0 renal
# M19-MEL melanoma = test system: M19-MEL melanoma
# TK-10 renal = test system: TK-10 renal
# HL-60(TB) leukemia = test system: HL-60(TB) leukemia
# SNB-75 CNS = test system: SNB-75 CNS
# KM20L2 colon = test system: KM20L2 colon
# HOP-18 NSCLC = test system: HOP-18 NSCLC
smiles,measurement,setting,value
O=C(Nc1cccc([N+](=O)[O-])c1)/C(=N\NC(=O)c1ccncc1)c1nc2ccc([N+](=O)[O-])cc2[nH]c1=O,TGI,CAKI-1 renal,> 100 µM
same,TGI,UO-31 renal,> 100 µM
same,TGI,SNB-78 CNS,> 100 µM
same,TGI,SF-539 CNS,> 100 µM
same,TGI,MOLT-4 leukemia,> 100 µM
same,TGI,SN12C renal,> 100 µM
same,TGI,A549 NSCLC,> 100 µM
same,TGI,OVCAR-8 ovarian,> 100 µM
same,TGI,IGROV1 ovarian,> 100 µM
same,TGI,UACC-62 melanoma,> 100 µM
same,TGI,KM12 colon,> 100 µM
same,TGI,HOP-62 NSCLC,> 100 µM
same,TGI,K-562 leukemia,> 100 µM
same,TGI,NCI-H460 lung,> 100 µM
same,TGI,RXF 393 renal,> 100 µM
same,TGI,COLO 205 colon,> 100 µM
same,TGI,NCI-H23 lung,> 100 µM
same,TGI,SR leukemia,> 100 µM
same,TGI,NCI-H226 lung,> 100 µM
same,TGI,HCT-116 colon,> 100 µM
same,TGI,SNB-19 CNS,> 100 µM
same,TGI,LXFL 529 NSCLC,> 100 µM
same,TGI,HCC-2998 colon,93.8 µM
same,TGI,SK-MEL-5 melanoma,> 100 µM
same,TGI,SF-268 CNS,> 100 µM
same,TGI,OVCAR-3 ovarian,> 100 µM
same,TGI,M14 melanoma,> 100 µM
same,TGI,CCRF-CEM leukemia,> 100 µM
same,TGI,SK-MEL-28 melanoma,> 100 µM
same,TGI,A498 renal,> 100 µM
same,TGI,HT29 colon,> 100 µM
same,TGI,OVCAR-5 ovarian,> 100 µM
same,TGI,U251 CNS,> 100 µM
same,TGI,NCI-H522 lung,> 100 µM
same,TGI,EKVX NSCLC,> 100 µM
same,TGI,LOX IMVI melanoma,> 100 µM
same,TGI,SW-620 colon,> 100 µM
same,TGI,HCT-15 colon,> 100 µM
same,TGI,DMS 114 small cell lung,> 100 µM
same,TGI,OVCAR-4 ovarian,> 100 µM
same,TGI,ACHN renal,> 100 µM
same,TGI,SF-295 CNS,> 100 µM
same,TGI,SK-MEL-2 melanoma,> 100 µM
same,TGI,HOP-92 NSCLC,> 100 µM
same,TGI,SK-OV-3 ovarian,> 100 µM
same,TGI,RPMI-8226 leukemia,> 100 µM
same,TGI,MALME-3M melanoma,> 100 µM
same,TGI,UACC-257 melanoma,> 100 µM
same,TGI,786-0 renal,> 100 µM
CC[N-]c1nnnn1CC.[Au+].c1ccc([PH+](c2ccccc2)c2ccccc2)cc1,GI50,UO-31 renal,1.66 µM
same,TGI,UO-31 renal,3.14 µM
same,GI50,SNB-78 CNS,2.5 µM
same,TGI,SNB-78 CNS,> 100 µM
same,GI50,SF-539 CNS,2.1 µM
same,TGI,SF-539 CNS,5.79 µM
same,GI50,MOLT-4 leukemia,0.716 µM
same,TGI,MOLT-4 leukemia,3.74 µM
same,GI50,SN12C renal,1.65 µM
same,TGI,SN12C renal,3.26 µM
same,GI50,A549 NSCLC,4.93 µM
same,TGI,A549 NSCLC,> 53.5 µM
same,GI50,OVCAR-8 ovarian,1.57 µM
same,TGI,OVCAR-8 ovarian,3.07 µM
same,GI50,IGROV1 ovarian,2.26 µM
same,TGI,IGROV1 ovarian,5.96 µM
same,GI50,UACC-62 melanoma,1.2 µM
same,TGI,UACC-62 melanoma,3.18 µM
same,GI50,KM12 colon,2.93 µM
same,TGI,KM12 colon,11.6 µM
same,GI50,HOP-62 NSCLC,2.07 µM
same,TGI,HOP-62 NSCLC,3.72 µM
same,GI50,K-562 leukemia,0.342 µM
same,TGI,K-562 leukemia,1.91 µM
same,GI50,NCI-H460 lung,3.71 µM
same,TGI,NCI-H460 lung,> 20.7 µM
same,GI50,RXF 393 renal,0.242 µM
same,TGI,RXF 393 renal,0.801 µM
same,GI50,COLO 205 colon,2.19 µM
same,TGI,COLO 205 colon,5.4 µM
same,TGI,M19-MEL melanoma,4.24 µM
same,GI50,NCI-H23 lung,1.39 µM
same,TGI,NCI-H23 lung,3.01 µM
same,GI50,NCI-H226 lung,1.44 µM
same,TGI,NCI-H226 lung,3.2 µM
same,GI50,TK-10 renal,1.66 µM
same,TGI,TK-10 renal,3.07 µM
same,GI50,HCT-116 colon,1.55 µM
same,TGI,HCT-116 colon,2.9 µM
same,GI50,SNB-19 CNS,1.44 µM
same,TGI,SNB-19 CNS,2.76 µM
same,GI50,LXFL 529 NSCLC,0.723 µM
same,TGI,LXFL 529 NSCLC,2.04 µM
same,GI50,HCC-2998 colon,1.68 µM
same,TGI,HCC-2998 colon,3.15 µM
same,GI50,SK-MEL-5 melanoma,0.811 µM
same,TGI,SK-MEL-5 melanoma,2.22 µM
same,GI50,OVCAR-3 ovarian,1.76 µM
same,TGI,OVCAR-3 ovarian,3.15 µM
same,GI50,M14 melanoma,1.29 µM
same,TGI,M14 melanoma,2.79 µM
same,GI50,SK-MEL-28 melanoma,0.677 µM
same,TGI,SK-MEL-28 melanoma,2.16 µM
same,GI50,OVCAR-5 ovarian,4.5 µM
same,TGI,OVCAR-5 ovarian,9.16 µM
same,GI50,U251 CNS,1.96 µM
same,TGI,U251 CNS,6.48 µM
same,GI50,HL-60(TB) leukemia,0.187 µM
same,TGI,HL-60(TB) leukemia,0.68 µM
same,GI50,SNB-75 CNS,1.35 µM
same,TGI,SNB-75 CNS,3.46 µM
same,GI50,EKVX NSCLC,1.7 µM
same,TGI,EKVX NSCLC,4.04 µM
same,GI50,LOX IMVI melanoma,1.45 µM
same,TGI,LOX IMVI melanoma,2.93 µM
same,GI50,ACHN renal,1.62 µM
same,TGI,ACHN renal,3.02 µM
same,GI50,SF-295 CNS,3.09 µM
same,TGI,SF-295 CNS,10 µM
same,GI50,SK-MEL-2 melanoma,1.14 µM
same,TGI,SK-MEL-2 melanoma,2.39 µM
same,GI50,SK-OV-3 ovarian,4.95 µM
same,TGI,SK-OV-3 ovarian,9.98 µM
same,GI50,RPMI-8226 leukemia,0.568 µM
same,TGI,RPMI-8226 leukemia,4.48 µM
same,GI50,KM20L2 colon,2 µM
same,TGI,KM20L2 colon,12.9 µM
same,GI50,HOP-18 NSCLC,1.82 µM
same,TGI,HOP-18 NSCLC,3.23 µM
same,GI50,MALME-3M melanoma,1.24 µM
same,TGI,MALME-3M melanoma,2.55 µM
same,GI50,UACC-257 melanoma,1.27 µM
same,TGI,UACC-257 melanoma,2.72 µM
same,GI50,786-0 renal,1.37 µM
same,TGI,786-0 renal,2.67 µM

# — PubChem BioAssay (NCI)
